Measurements published in patent publication US20230085307A1, “PYRIDAZINONE COMPOUND AND HERBICIDE” (NISSAN CHEMICAL CORPORATION, priority 2019, published 2023).

Legend:
[1] = tested on: wild oat; test: Test Example 4: herbicidal effect by soil treatment (Table 19, symbol I); format: in vivo, wild oat (Avena fatua); settings: amount of applied herbicide 320 g/ha
Summary of the method: (§1)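 Herbicidal effect was rated 3 weeks after treatment, using the scoring criteria of an earlier test. The compound, formulated as an emulsion and diluted in water to a set herbicide amount, had been sprayed uniformly on soil over freshly sown seeds. Growth took place in a greenhouse at 25° C. to 30° C.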

[2] = tested on: persian speedwell; test: Test Example 5: herbicidal effect by foliage application, plastic box (Table 20, symbol R); format: in vivo, Persian speedwell (Veronica persica); settings: foliage application, 320 g/ha, three weeks after application
Summary of the method: (§2)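 Foliar spray test: emulsion formulation diluted in water to a set application rate, sprayed onto 14-day-old plants raised in diluvial soil at 25° C to 30° C under glass. Both herbicidal effect and crop effect rated visually three weeks later.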

[3] = tested on: barnyard grass; test: Test Example 4: herbicidal effect by soil treatment (Table 19, symbol H); format: in vivo, barnyard grass (Echinochloa crus-galli); settings: amount of applied herbicide 320 g/ha
Summary of the method: as §1

[4] = tested on: Japanese bulrush; test: Test Example 2: herbicidal activity, application during weed generation under submerged conditions (Table 17, symbol B); format: in vivo, Japanese bulrush (Schoenoplectus juncoides); settings: AAH 320 g/ha; application during weed generation, submerged conditions
Summary of the method: (§3)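 Wagner pot, alluvial soil, 4 cm flood; mixed sowing of all species; greenhouse 25° C.–30° C. Emulsifiable formulation, water-diluted to predetermined dose, applied to paddy water at 1–2 leaf stage. Effect rated at 3 wk using the earlier test's scoring criteria.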

[5] = tested on: rice flat sedge; test: Test Example 3: herbicidal effect by foliage application, Wagner pot (Table 18, symbol E); format: in vivo, rice flat sedge (Cyperus iria); settings: 320 g/ha
Summary of the method: (§4)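 Plants were sown in alluvial soil held under 0.1–0.5 cm standing water and grown 14 days in a greenhouse at 25–30 °C. An emulsifiable formulation, water-diluted to the set dose, was then sprayed onto the foliage, and effects were scored three weeks later using previously defined criteria.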

[6] = tested on: barnyard grass; test: Test Example 3: herbicidal effect by foliage application, Wagner pot (Table 18, symbol H); format: in vivo, barnyard grass (Echinochloa crus-galli); settings: 320 g/ha
Summary of the method: as §4

[7] = tested on: late watergrass; test: Test Example 2: herbicidal activity, application during weed generation under submerged conditions (Table 17, symbol A); format: in vivo, late watergrass (Echinochloa oryzicola); settings: AAH 320 g/ha; application during weed generation, submerged conditions
Summary of the method: as §3

[8] = tested on: barnyard grass; test: Test Example 5: herbicidal effect by foliage application, plastic box (Table 20, symbol H); format: in vivo, barnyard grass (Echinochloa crus-galli); settings: foliage application, 320 g/ha, three weeks after application
Summary of the method: as §2

[9] = tested on: windgrass; test: Test Example 5: herbicidal effect by foliage application, plastic box (Table 20, symbol L); format: in vivo, windgrass (Apera spica-venti); settings: foliage application, 320 g/ha, three weeks after application
Summary of the method: as §2

[10] = tested on: blackgrass; test: Test Example 5: herbicidal effect by foliage application, plastic box (Table 20, symbol J); format: in vivo, blackgrass (Alopecurus myosuroides); settings: foliage application, 320 g/ha, three weeks after application
Summary of the method: as §2

[11] = tested on: redroot pigweed; test: Test Example 5: herbicidal effect by foliage application, plastic box (Table 20, symbol N); format: in vivo, redroot pigweed (Amaranthus retroflexus); settings: foliage application, 320 g/ha, three weeks after application
Summary of the method: as §2

[12] = tested on: lambsquarters; test: Test Example 4: herbicidal effect by soil treatment (Table 19, symbol O); format: in vivo, lambsquarters (Chenopodium album); settings: amount of applied herbicide 320 g/ha
Summary of the method: as §1

[13] = tested on: velvetleaf; test: Test Example 4: herbicidal effect by soil treatment (Table 19, symbol M); format: in vivo, velvetleaf (Abutilon theophrasti); settings: amount of applied herbicide 320 g/ha
Summary of the method: as §1

[14] = tested on: southern crabgrass; test: Test Example 4: herbicidal effect by soil treatment (Table 19, symbol F); format: in vivo, southern crabgrass (Digitaria ciliaris); settings: amount of applied herbicide 320 g/ha
Summary of the method: as §1

[15] = tested on: chickweed; test: Test Example 4: herbicidal effect by soil treatment (Table 19, symbol P); format: in vivo, common chickweed (Stellaria media); settings: amount of applied herbicide 320 g/ha
Summary of the method: as §1

[16] = tested on: southern crabgrass; test: Test Example 5: herbicidal effect by foliage application, plastic box (Table 20, symbol F); format: in vivo, southern crabgrass (Digitaria ciliaris); settings: foliage application, 320 g/ha, three weeks after application
Summary of the method: as §2

[17] = tested on: lambsquarters; test: Test Example 5: herbicidal effect by foliage application, plastic box (Table 20, symbol O); format: in vivo, lambsquarters (Chenopodium album); settings: foliage application, 320 g/ha, three weeks after application
Summary of the method: as §2

[18] = tested on: Italian ryegrass; test: Test Example 5: herbicidal effect by foliage application, plastic box (Table 20, symbol K); format: in vivo, Italian ryegrass (Lolium multiflorum); settings: foliage application, 320 g/ha, three weeks after application
Summary of the method: as §2

[19] = tested on: wild oat; test: Test Example 5: herbicidal effect by foliage application, plastic box (Table 20, symbol I); format: in vivo, wild oat (Avena fatua); settings: foliage application, 320 g/ha, three weeks after application
Summary of the method: as §2

[20] = tested on: Italian ryegrass; test: Test Example 4: herbicidal effect by soil treatment (Table 19, symbol K); format: in vivo, Italian ryegrass (Lolium multiflorum); settings: amount of applied herbicide 320 g/ha
Summary of the method: as §1

[21] = tested on: green foxtail; test: Test Example 4: herbicidal effect by soil treatment (Table 19, symbol G); format: in vivo, green foxtail (Setaria viridis); settings: amount of applied herbicide 320 g/ha
Summary of the method: as §1

[22] = tested on: redroot pigweed; test: Test Example 4: herbicidal effect by soil treatment (Table 19, symbol N); format: in vivo, redroot pigweed (Amaranthus retroflexus); settings: amount of applied herbicide 320 g/ha
Summary of the method: as §1

| SMILES | herbicidal effect rating, I: wild oat [1] | herbicidal effect grade, R: persian speedwell [2] | herbicidal effect rating, H: barnyard grass [3] | herbicidal effect rating, B: Japanese bulrush [4] | herbicidal effect on E (rice flat sedge), rating 0-5 [5] | herbicidal effect on H (barnyard grass), rating 0-5 [6] | herbicidal effect rating, A: late watergrass [7] | herbicidal effect grade, H: barnyard grass [8] | herbicidal effect grade, L: windgrass [9] | herbicidal effect grade, J: blackgrass [10] | herbicidal effect grade, N: redroot pigweed [11] | herbicidal effect rating, O: lambsquarters [12] | herbicidal effect rating, M: velvetleaf [13] | herbicidal effect rating, F: southern crabgrass [14] | herbicidal effect rating, P: chickweed [15] | herbicidal effect grade, F: southern crabgrass [16] | herbicidal effect grade, O: lambsquarters [17] | herbicidal effect grade, K: Italian ryegrass [18] | herbicidal effect grade, I: wild oat [19] | herbicidal effect rating, K: Italian ryegrass [20] | further results |
| --- | --- | --- | --- | --- | --- | --- | --- | --- | --- | --- | --- | --- | --- | --- | --- | --- | --- | --- | --- | --- | --- |
| CCCCCOc1ccc(-c2sc3ccccc3c2-c2c(O)c(C)nn(C)c2=O)cc1 [1-026] | 0 (Herbicidal rate of 5% or less (almost no effect)) | 5 (Herbicidal rate of 90% or more (almost completely withered)) | 0 (Herbicidal rate of 5% or less (almost no effect)) | 3 (Herbicidal rate of 40% or more and less than 70%) | 4 (Herbicidal rate of 70% or more and less than 90%) | 4 (Herbicidal rate of 70% or more and less than 90%) | 2 (Herbicidal rate of 20% or more and less than 40%) | 3 (Herbicidal rate of 40% or more and less than 70%) | 4 (Herbicidal rate of 70% or more and less than 90%) | 4 (Herbicidal rate of 70% or more and less than 90%) | 5 (Herbicidal rate of 90% or more (almost completely withered)) | 0 (Herbicidal rate of 5% or less (almost no effect)) | 0 (Herbicidal rate of 5% or less (almost no effect)) | 0 (Herbicidal rate of 5% or less (almost no effect)) | 2 (Herbicidal rate of 20% or more and less than 40%) | 4 (Herbicidal rate of 70% or more and less than 90%) | 0 (Herbicidal rate of 5% or less (almost no effect)) | 2 (Herbicidal rate of 20% or more and less than 40%) | 2 (Herbicidal rate of 20% or more and less than 40%) | 0 (Herbicidal rate of 5% or less (almost no effect)) | herbicidal effect rating, G: green foxtail [21]: 0 (Herbicidal rate of 5% or less (almost no effect)); herbicidal effect rating, N: redroot pigweed [22]: 5 (Herbicidal rate of 90% or more (almost completely withered)) |
| Cc1nn(C)c(=O)c(-c2c(-c3ccccc3OC(F)(F)F)sc3ccccc23)c1O [1-030] | 1 (Herbicidal rate of 5% or more and less than 20%) | 5 (Herbicidal rate of 90% or more (almost completely withered)) | 4 (Herbicidal rate of 70% or more and less than 90%) | 3 (Herbicidal rate of 40% or more and less than 70%) | 4 (Herbicidal rate of 70% or more and less than 90%) | 5 (Herbicidal rate of 90% or more (almost completely withered)) | 1 (Herbicidal rate of 5% or more and less than 20%) | 4 (Herbicidal rate of 70% or more and less than 90%) | 5 (Herbicidal rate of 90% or more (almost completely withered)) | 5 (Herbicidal rate of 90% or more (almost completely withered)) | 5 (Herbicidal rate of 90% or more (almost completely withered)) | 5 (Herbicidal rate of 90% or more (almost completely withered)) | 3 (Herbicidal rate of 40% or more and less than 70%) | 5 (Herbicidal rate of 90% or more (almost completely withered)) | 5 (Herbicidal rate of 90% or more (almost completely withered)) | 5 (Herbicidal rate of 90% or more (almost completely withered)) | 5 (Herbicidal rate of 90% or more (almost completely withered)) | 4 (Herbicidal rate of 70% or more and less than 90%) | 4 (Herbicidal rate of 70% or more and less than 90%) | 3 (Herbicidal rate of 40% or more and less than 70%) | herbicidal effect rating, G: green foxtail [21]: 4 (Herbicidal rate of 70% or more and less than 90%); herbicidal effect rating, N: redroot pigweed [22]: 5 (Herbicidal rate of 90% or more (almost completely withered)) |
| CC(=O)c1ccc(-c2sc3ccccc3c2-c2c(O)c(C)nn(C)c2=O)cc1 [1-041] | 1 (Herbicidal rate of 5% or more and less than 20%) | 5 (Herbicidal rate of 90% or more (almost completely withered)) | 0 (Herbicidal rate of 5% or less (almost no effect)) | 3 (Herbicidal rate of 40% or more and less than 70%) | 5 (Herbicidal rate of 90% or more (almost completely withered)) | 1 (Herbicidal rate of 5% or more and less than 20%) | 0 (Herbicidal rate of 5% or less (almost no effect)) | 0 (Herbicidal rate of 5% or less (almost no effect)) | 4 (Herbicidal rate of 70% or more and less than 90%) | 0 (Herbicidal rate of 5% or less (almost no effect)) | 5 (Herbicidal rate of 90% or more (almost completely withered)) | 5 (Herbicidal rate of 90% or more (almost completely withered)) | 3 (Herbicidal rate of 40% or more and less than 70%) | 2 (Herbicidal rate of 20% or more and less than 40%) | 0 (Herbicidal rate of 5% or less (almost no effect)) | 4 (Herbicidal rate of 70% or more and less than 90%) | 3 (Herbicidal rate of 40% or more and less than 70%) | 5 (Herbicidal rate of 90% or more (almost completely withered)) | 1 (Herbicidal rate of 5% or more and less than 20%) | 5 (Herbicidal rate of 90% or more (almost completely withered)) | herbicidal effect rating, G: green foxtail [21]: 3 (Herbicidal rate of 40% or more and less than 70%); herbicidal effect rating, N: redroot pigweed [22]: 4 (Herbicidal rate of 70% or more and less than 90%) |
